Data taken from patent US20060217308A1, “Compositions for the treatment of tumor pathologies, comprising internalin B (ln1B) of Listeria monocytogene protein or a fragment thereof” (priority 2005, published 2006).

What was measured:
Met [1] = assay: Effect of proteasome and lysosome inhibitors on In1B-dependent degradation of Met; assay type: cell-based, human; conditions: HeLa cells pre-treated with inhibitor before addition of In1B; anti-Met immunoblot
Procedure: (A) Hela cells were treated (+) with […] epoximycin, […] clasto-lactacystin-β-lactone (lactone), 20 mM ammonium chloride, or 5 μM bafilomycin A1 (Baf-A1) for 90 minutes before addition of In1B. Cell extracts were loaded in a SDS-PAGE gel followed by immunoblot with anti-Met antibody. […] (B) Surface exposed proteins of Hela cells were biotinylated (Biot +) before addition of In1B. In1B was added for two minutes to allow internalization of Met, then cells were washed and biotin was removed (see methods and text) from the surface. Samples were precipitated with neutravidin agarose and blotted against Met.
Mono-ubiquitination is the signal that induces endocytosis of RTKs after ligand binding and usually drives cargo proteins to lysosomal degradation (6, 17, 34). To study whether In1B-dependent degradation of Met is a proteasomal or a lysosomal event, HeLa cells were treated with clasto-p-lactacystin lactone or epoximycin, two inhibitors of proteasome degradation, and ammonium chloride or bafilomycin A1, two inhibitors of lysosome degradation, […] before the addition of In1B. Cellular extracts were then immunoblotted using anti Met antibodies (FIG. 4).

Met [2] = molecular target: Met (Homo sapiens, UniProt P08581); conditions: comparison with In1B; cited from earlier work
Chain of Met (Homo sapiens, UniProt P08581) (P08581 25-1390): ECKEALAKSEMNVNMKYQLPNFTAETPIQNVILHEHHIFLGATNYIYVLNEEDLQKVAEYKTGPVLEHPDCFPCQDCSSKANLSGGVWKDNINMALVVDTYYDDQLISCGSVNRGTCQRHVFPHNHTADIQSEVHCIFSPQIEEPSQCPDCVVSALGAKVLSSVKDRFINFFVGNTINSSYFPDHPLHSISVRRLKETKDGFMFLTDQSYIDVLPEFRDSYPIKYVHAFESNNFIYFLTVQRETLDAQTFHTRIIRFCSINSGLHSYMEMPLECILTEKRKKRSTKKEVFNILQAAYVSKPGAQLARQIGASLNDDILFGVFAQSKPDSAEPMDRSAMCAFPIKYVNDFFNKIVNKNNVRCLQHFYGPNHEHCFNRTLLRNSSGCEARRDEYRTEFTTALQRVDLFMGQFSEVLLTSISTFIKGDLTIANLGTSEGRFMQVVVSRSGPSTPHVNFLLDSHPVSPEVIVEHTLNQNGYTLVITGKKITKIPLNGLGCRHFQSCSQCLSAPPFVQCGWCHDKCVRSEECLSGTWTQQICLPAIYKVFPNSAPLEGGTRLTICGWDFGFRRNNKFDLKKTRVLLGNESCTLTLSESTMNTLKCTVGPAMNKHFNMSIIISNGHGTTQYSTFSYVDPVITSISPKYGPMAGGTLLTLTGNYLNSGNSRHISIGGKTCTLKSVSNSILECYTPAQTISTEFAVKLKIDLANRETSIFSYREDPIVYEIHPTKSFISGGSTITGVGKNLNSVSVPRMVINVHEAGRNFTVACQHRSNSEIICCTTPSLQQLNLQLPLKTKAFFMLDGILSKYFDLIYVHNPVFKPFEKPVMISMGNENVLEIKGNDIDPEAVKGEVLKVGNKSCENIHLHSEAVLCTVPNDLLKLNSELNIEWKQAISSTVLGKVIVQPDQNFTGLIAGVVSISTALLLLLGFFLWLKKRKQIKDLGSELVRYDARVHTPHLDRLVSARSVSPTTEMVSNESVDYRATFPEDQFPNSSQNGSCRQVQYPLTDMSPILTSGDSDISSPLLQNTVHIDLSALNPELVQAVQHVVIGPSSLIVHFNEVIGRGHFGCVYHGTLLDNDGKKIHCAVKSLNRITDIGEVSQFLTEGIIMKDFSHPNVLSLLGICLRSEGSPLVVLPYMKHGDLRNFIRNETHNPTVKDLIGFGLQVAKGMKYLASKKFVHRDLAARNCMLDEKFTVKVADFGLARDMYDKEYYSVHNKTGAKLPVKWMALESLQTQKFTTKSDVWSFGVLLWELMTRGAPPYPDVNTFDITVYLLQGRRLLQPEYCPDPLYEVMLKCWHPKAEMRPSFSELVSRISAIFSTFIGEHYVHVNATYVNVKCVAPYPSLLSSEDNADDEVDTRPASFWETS

[3] = molecular target: Met (hepatocyte growth factor receptor), endogenous in human HeLa cells (human) (UniProt P08581); assay: cell-based or functional assay
Chain of Met (hepatocyte growth factor receptor), endogenous in human HeLa cells (human) (P08581 25-1390): as above

[4] = system: poly-ubiquitinated proteins; assay: FK1 functionality test: poly-ubiquitin immunoblot of HeLa cells treated with proteasome inhibitors; assay type: cell-based, human; conditions: 60 minutes treatment, versus non-treated
Procedure: (A) In1B was added (+) to HeLa cells. Lysates were immunoprecipitated using C12 rabbit polyclonal anti-Met antibody and blotted against Met (DL21 mAb). The same membrane was stripped and blotted against ubiquitin using FK1, a mAb that recognizes poly-ubiquitinated proteins, or P4D1, a mAb that recognizes both poly- and mono-ubiquitinated proteins. (B) Total cell extracts from Hela cells treated with […] epoximycin (lane 2) or […] clasto-lactacystin-β-lactone (lane 3) for 60 minutes, or non-treated cells (lane 1) were blotted against poly-ubiquitin (FK1) or actin. (C) ubiquitin ladder was blotted with FK1 or P4D1. The number of ubiquitin modules is indicated on the right. The molecular weight of protein markers is shown in the left of the panels, in kDa. In D and E, Hela Cells were transfected with siRNA to knock down Cbl expression (RNAi), or with RNA control (Control). (D) Cellular Cbl and actin were detected by immunoblotting. […]
The rapid degradation of Met after In B contact is different from the HGF-dependent degradation, which has been reported to take two hours (19-21), indicating differences in the biochemistry of the process. […] Samples from HeLa cells treated with In1B (5 nM) were immunoprecipitated using an anti-Met antibody, and then Met-immunoprecipitates were analyzed with an anti Met mAb (FIG. 3A1), FK1 (FIG. 3A2) or P4D1 (FIG. 3A3). […]

Met [5] = assay: Effect of cycloheximide on In1B-dependent degradation and de-novo synthesis of Met; assay type: cell-based, human; conditions: HeLa cells pre-treated 90 minutes before In1B
Procedure: FIG. 2 depicts the degradation and de-novo synthesis of Met. (A) HeLa cells were treated at the indicated times with 5 nM In1B and cellular extracts were blotted against Met. (B) Cells were treated as in A, but blotted at the same time with anti-Met antibody and Streptavidin. Stars indicate nonspecific bands recognized by streptavidin and the square indicates Met. (C) The experiment was performed as in A, but cells were pre-treated with […] of cycloheximide for 90 minutes before addition of In1B. (D) This experiment was performed as in A, but In1B was removed three minutes after it was added. Actin is shown as the loading control in A, C and D. The molecular mass of the markers is indicated in kDa.
In order to determine whether de-novo synthesis of Met occurred after In1B dependent-degradation, HeLa cells were pre-treated with cycloheximide, which inhibits protein synthesis, for 90 minutes before exposure to In1B.

## Cl.N [ammonium chloride]
Met [1]
  effect of inhibitor on In1B-dependent degradation of Met: significantly protected Met from degradation

## HGF: Met ligand (hepatocyte growth factor)
Met [2]
  time needed for a similar rate of Met degradation after activation with HGF: two to five and two

## In1B (internalin B) of Listeria monocytogenes, purified soluble protein (ligand)
[3]
  Met phosphorylation (blot against phospho-tyrosine): 2 min
  kinetics of In1B-dependent ubiquitination of Met: 2 min
  minimal amount of In1B necessary to trigger Met ubiquitination: 1.75 nM

## CC[C@H](C)[C@H](NC(=O)[C@H]([C@@H](C)CC)N(C)C(C)=O)C(=O)N[C@H](C(=O)N[C@@H](CC(C)C)C(=O)[C@@]1(C)CO1)[C@@H](C)O [epoximycin]
Met [1]
  effect of inhibitor on In1B-dependent degradation of Met: did not inhibit
[4]
  poly-ubiquitin (FK1) signal in cells treated with proteasome inhibitor: stronger signals

## C[C@@H]1C[C@@H]([C@H](O)CC2CC(=O)NC(=O)C2)C(=O)[C@@H](C)C1 [cycloheximide]
Met [5]
  effect of cycloheximide on In1B-dependent degradation of Met: did not prevent
  effect of cycloheximide on de-novo synthesis of Met after In1B: strongly hampered

## CO/C1=C\C(C)=C\[C@@H](C)[C@@H](O)[C@@H](C)C/C(C)=C/C=C/[C@H](OC)[C@@H]([C@@H](C)[C@@H](O)[C@H](C)[C@@]2(O)C[C@@H](O)[C@H](C)[C@@H](C(C)C)O2)OC1=O [bafilomycin A1]
Met [1]
  effect of inhibitor on In1B-dependent degradation of Met: significantly protected Met from degradation

## CC(C)[C@H](O)[C@@]12NC(=O)[C@H](C)[C@@H]1OC2=O [clasto-lactacystin-β-lactone]
Met [1]
  effect of inhibitor on In1B-dependent degradation of Met: did not inhibit
[4]
  poly-ubiquitin (FK1) signal in cells treated with proteasome inhibitor: stronger signals
